Assay results from paper PMC3516572, “MiniCD4 Microbicide Prevents HIV Infection of Human Mucosal Explants and Vaginal Transmission of SHIV162P3 in Cynomolgus Macaques” (PLoS Pathogens, 2012).

Experiments:
[1] = system: SHIV162P3; details: cited from earlier work
Description: The use of effective therapeutic drugs, such as tenofovir and more recently dapivirine tested in phase III trial, targeting post-entry events in the viral replication cycle (reverse transcription, integration and viral maturation) remains attractive, however the impact of their dual use in prevention and therapy on the potential induction of resistance evolution remains controversial. In contrast drugs that target the initial steps of viral attachment to CD4 and one of two co-receptors (CCR5 or CXCR4) triggering viral fusion with susceptible targets cells (entry inhibitors) are not widel ...

[2] = system: penile tissue explants; test: MTT viability assay on penile tissue explants; format: cell-based, human; details: 24 h at 37°C, then MTT 2 h; M48U1 ten-fold dilutions, highest concentrations tested; nonoxynol-9 at 500 ng/mL; two independent experiments in triplicates
Description: Cervical tissue was obtained from patients undergoing planned therapeutic hysterectomy at St. George's Hospital in London, United Kingdom. Surgically resected specimens of colorectal tissue were collected at St. George's Hospital, London, United Kingdom. Penile tissue (glans) was obtained from individuals undergoing gender reassignment surgery at Charing Cross Hospital. All tissues were collected after signed informed consent was received from all patients and under protocols approved by the Local Research Ethics Committee (National Research Ethic Service NHS). On arrival in the laboratory, resected tissue was cut into 2–3 mm^3 explants comprising both epithelial and stromal tissue or muscularis mucosae, depending on the tissue, as described previously, [22].
Penile tissues and PM-1 T cells were incubated in complete RPMI medium supplemented with ten-fold dilutions of M48U1 for 24 h at 37°C. Nonoxynol-9 microbicide (tested at 500 ng/mL) was employed as cytotoxic reference. […] For tissue, after releasing the formazan in ethanol overnight, cytotoxicity was determined by measuring the optical density of the purple formazan product at 570–690 nm using Synergy HT multi-detection microplate reader. For PM-1 cells, the absorption of the formazan product was determined after lysis of the cells.

[3] = system: PM-1 T cells; test: MTT viability assay on PM-1 T cells; format: cell-based; details: 24 h at 37°C, then MTT 2 h; M48U1 ten-fold dilutions, highest concentrations tested; nonoxynol-9 at 500 ng/mL; two independent experiments in triplicates
Method: Penile tissues and PM-1 T cells were incubated in complete RPMI medium supplemented with ten-fold dilutions of M48U1 for 24 h at 37°C. Nonoxynol-9 microbicide (tested at 500 ng/mL) was employed as cytotoxic reference. The compounds were removed and the tissue explants and cells were incubated for 2 h in medium containing 500 µg/mL of 3-(4,5-dimethylthiazol-2-yl)-2,5-diphenyltetrazolium bromide (MTT). For tissue, after releasing the formazan in ethanol overnight, cytotoxicity was determined by measuring the optical density of the purple formazan product at 570–690 nm using Synergy HT multi-detection microplate reader. For PM-1 cells, the absorption of the formazan product was determined after lysis of the cells.

SMILES | Protection of NHP from vaginal challenge with SHIV162P3 [1] | Cytotoxicity (MTT) in penile tissue [2] | Cytotoxicity (MTT) in PM-1 T-cell line [3]
COc1ccnc2[nH]cc(C(=O)C(=O)N3CCN(C(=O)c4ccccc4)C[C@H]3C)c12 [BMS-378806] | could protect NHP | – | –
CCCCCCCCCc1ccc(OCCOCCOCCOCCOCCOCCOCCOCCOCCO)cc1 [nonoxynol-9] | – | significant toxicity | significant toxicity
